Data from US7029857B1, “Processes for obtaining compounds employing SNORF72 receptors” (H. Lundbeck A/S, priority 1999, dated 2006).
No end group written: not given here.

How the values were obtained:
control oocytes = experiment: Cl- currents in control oocytes lacking injection of foreign mRNA; type: cell-based, Xenopus laevis
Experimental: In the present invention, oocytes were harvested from Xenopus laevis and injected with mRNA transcripts as previously described (Quick and Lester, 1994; Smith et al., 1997). SNORF62 mRNA transcript was synthesized using the T7 polymerase (“Message Machine”, Ambion) from linearized plasmids or PCR products containing the complete coding region of the gene. Oocytes were injected with 1–50 ng synthetic receptor RNA and incubated for 3–8 days at 17° C. Currents were recorded under dual electrode voltage clamp (Axon Instruments Inc.) with 3 M KCl-filled glass microelectrodes having resistances of 1–2 Mohm. Unless otherwise specified, oocytes were voltage clamped at a holding potential of −80 mV. During recordings, oocytes were bathed in continuously flowing (1–3 mL/min) medium containing 96 mM NaCl, 2 mM KCl, 1.8 mM CaCl2, 1 mM MgCl2, and 5 mM HEPES, pH 7.5 (ND96). Drugs were applied either by local perfusion from a 10 μL glass capillary tube fixed at a distance of 0.5 mm from the oocyte, or by switching from a series of gravity fed perfusion lines.

SNORF62 [1] = molecular target: T1, SNORF62 (Homo sapiens, UniProt Q9HB89); experiment: Inositol phosphate (IP) release in SNORF62-transfected COS-7 cells; type: cell-based; set-up: The SNORF62 cDNA codes for a protein of 426 amino acids; expressed in transfected cells; host or cells: COS-7 (transient, DEAE-dextran)
T1 sequence (Q9HB89 1-426): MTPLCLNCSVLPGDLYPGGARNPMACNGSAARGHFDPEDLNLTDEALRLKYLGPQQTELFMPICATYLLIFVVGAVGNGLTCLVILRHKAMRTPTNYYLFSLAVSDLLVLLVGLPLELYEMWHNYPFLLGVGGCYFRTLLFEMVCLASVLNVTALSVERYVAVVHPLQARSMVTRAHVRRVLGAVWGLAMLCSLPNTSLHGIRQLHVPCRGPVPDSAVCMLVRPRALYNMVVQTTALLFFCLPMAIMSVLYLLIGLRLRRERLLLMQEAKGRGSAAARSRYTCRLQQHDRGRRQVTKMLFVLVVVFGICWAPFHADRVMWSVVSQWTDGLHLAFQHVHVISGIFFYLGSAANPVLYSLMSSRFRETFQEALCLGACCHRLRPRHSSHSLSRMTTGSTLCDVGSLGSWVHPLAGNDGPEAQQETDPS
Experimental: Human SNORF62 receptor-mediated activation and human SNORF72 receptor-mediated activation of the inositol phosphate (IP) second messenger pathways were assessed by radiometric measurement of IP products.
For example, in a 96 well microplate format assay, COS-7 cells expressing the receptor of interest were plated at a density of 70,000 cells per well and allowed to incubate for 24 hours. The cells were then labeled with 0.5 μCi [^3H]myo-inositol overnight at 37° C., 5% CO2. Immediately before the assay, the medium was removed and replaced with 180 μL of Phosphate-Buffered Saline (PBS) containing 10 mM LiCl. The plates were then incubated for 20 min at 37° C., 5% CO2. Following the incubation, the cells were challenged with agonist (20 μl/well; 10× concentration) for 30 min at 37° C. The challenge was terminated by the addition of 100 μL of 5% v/v trichloroacetic acid, followed by incubation at 4° C. for greater than 30 minutes. Total IPs were isolated from the lysate by ion exchange chromatography. Briefly, the lysed contents of the wells were transferred to a Multiscreen HV filter plate (Millipore) containing Dowex AG1-X8 (200–400 mesh, formate form). The filter plates were prepared adding 100 μL of Dowex AG1-X8 suspension (50% v/v, water: resin) to each well. The filter plates were placed on a vacuum manifold to wash or elute the resin bed. Each well was first washed 2 times with 200 μl of 5 mM myo-inositol. Total [^3H]inositol phosphates were eluted with 75 μl of 1.2M ammonium formate/0.1M formic acid solution into 96-well plates. 200 μL of scintillation cocktail was added to each well, and the radioactivity was determined by liquid scintillation counting.

SNORF72 = molecular target: T2, SNORF72 (Homo sapiens, UniProt Q9GZQ4, A395T); experiment: Displacement of [125I]rat NMU-23 binding in SNORF72-transfected COS-7 membranes; conditions: binding affinity, SNORF72-transfected COS-7 cells (Table 1A); read-out: SNORF72 Avg Ki
T2 construct: expressed in transfected cells; host or cells: COS-7 (transient, DEAE-dextran)
Experimental: The specifics of preparing such cell membranes may in some cases be determined by the nature of the ensuing assay but typically involve harvesting whole cells and disrupting the cell pellet by sonication in ice cold buffer (e.g. 20 mM Tris HCl, mM EDTA, pH 7.4 at 4° C.). The resulting crude cell lysate is cleared of cell debris by low speed centrifugation at 200×g for 5 min at 4° C. The cleared supernatant is then centrifuged at 40,000×g for 20 min at 4° C., and the resulting membrane pellet is washed by suspending in ice cold buffer and repeating the high speed centrifugation step. The final washed membrane pellet is resuspended in assay buffer. Protein concentrations are determined by the method of Bradford (1976) using bovine serum albumin as a standard. The membranes may be used immediately or frozen for later use.
Radioligand binding assays were performed by diluting membranes prepared from cells expressing the receptor in 50 mM Tris buffer (pH=7.4 at 0° C.) containing 0.1% bovine serum albumin (Sigma), aprotinin (0.005 mg/ml, Boehringer Mannheim) and bestatin (0.1 mM, Sigma) as protease inhibitors. The final protein concentration in the assay was 12–40 μg/ml. […] The bound ligand was separated from free by filtration through GF/B filters presoaked in 0.5% polyethyleneimine (PEI), using a Tomtec (Wallac) vacuum filtration device. After addition of Ready Safe (Beckman) scintillation fluid, bound radioactivity was quantitated using a Trilux (Wallac) scintillation counter (approximately 40% counting efficiency of bound counts). Data was fit to non-linear curves using GraphPad Prism.
In this manner, agonist or antagonist compounds that bind to the receptor may be identified as they inhibit the binding of the labeled ligand to the membrane protein of cells expressing the said receptor. Non-specific binding was defined as the amount of radioactivity remaining after incubation of membrane protein in the presence of 100 nM of the unlabeled peptide corresponding to the radioligand used. In equilibrium saturation binding assays membrane preparations or intact cells transfected with the receptor are incubated in the presence of increasing concentrations of the labeled compound to determine the binding affinity of the labeled ligand.

SNORF62 [2] = molecular target: T1, SNORF62; experiment: Calcium-activated Cl- currents in Xenopus oocytes injected with SNORF62 mRNA; type: cell-based; set-up: from linearized plasmids or PCR products containing the complete coding region of the gene; expressed in transfected cells; host or cells: Xenopus laevis oocytes injected with in vitro transcribed SNORF62 mRNA; conditions: 1 μM peptide, n=3
Experimental: Heterologous expression of GPCRs in Xenopus oocytes has been widely used to determine the identity of signaling pathways activated by agonist stimulation (Gundersen et al., 1983; Takahashi et al., 1987). Activation of the phospholipase C (PLC) pathway is assayed by applying a test compound in ND96 solution to oocytes previously injected with mRNA for the human SNORF62 and observing inward currents at a holding potential of approximately −80 mV. The appearance of currents that reverse at −25 mV and display other properties of the Ca^++-activated Cl^− channel is indicative of receptor-acitivation of PLC and release of IP3 and intracellular Ca^++.
In the present invention, oocytes were harvested from Xenopus laevis and injected with mRNA transcripts as previously described (Quick and Lester, 1994; Smith et al., 1997). SNORF62 mRNA transcript was synthesized using the T7 polymerase (“Message Machine”, Ambion) from linearized plasmids or PCR products containing the complete coding region of the gene. Oocytes were injected with 1–50 ng synthetic receptor RNA and incubated for 3–8 days at 17° C. Currents were recorded under dual electrode voltage clamp (Axon Instruments Inc.) with 3 M KCl-filled glass microelectrodes having resistances of 1–2 Mohm. Unless otherwise specified, oocytes were voltage clamped at a holding potential of −80 mV. […]

FRVDEEFQSPFASQSRGYFLFRPRN-NH2 [human NMU-25, FRVDEEFQSPFASQSRGYFLFRPRN—NH2]
response in control oocytes (control oocytes): no response
release of IP second messengers above basal (SNORF62 [1]): approximately 2 fold
Ki (SNORF72): 3 nM
current amplitude (SNORF62 [2]): 1065±211 nA
